The structures appear in SMILES notation.

In the test the target is T1, human type 1 glycine transporter (GlyT1) (Homo sapiens, UniProt P48067).
T1 construct: T98G cells (glioma cells) expressing human type 1 glycine transporter (GlyT1) were used
T1 sequence (P48067 1-706): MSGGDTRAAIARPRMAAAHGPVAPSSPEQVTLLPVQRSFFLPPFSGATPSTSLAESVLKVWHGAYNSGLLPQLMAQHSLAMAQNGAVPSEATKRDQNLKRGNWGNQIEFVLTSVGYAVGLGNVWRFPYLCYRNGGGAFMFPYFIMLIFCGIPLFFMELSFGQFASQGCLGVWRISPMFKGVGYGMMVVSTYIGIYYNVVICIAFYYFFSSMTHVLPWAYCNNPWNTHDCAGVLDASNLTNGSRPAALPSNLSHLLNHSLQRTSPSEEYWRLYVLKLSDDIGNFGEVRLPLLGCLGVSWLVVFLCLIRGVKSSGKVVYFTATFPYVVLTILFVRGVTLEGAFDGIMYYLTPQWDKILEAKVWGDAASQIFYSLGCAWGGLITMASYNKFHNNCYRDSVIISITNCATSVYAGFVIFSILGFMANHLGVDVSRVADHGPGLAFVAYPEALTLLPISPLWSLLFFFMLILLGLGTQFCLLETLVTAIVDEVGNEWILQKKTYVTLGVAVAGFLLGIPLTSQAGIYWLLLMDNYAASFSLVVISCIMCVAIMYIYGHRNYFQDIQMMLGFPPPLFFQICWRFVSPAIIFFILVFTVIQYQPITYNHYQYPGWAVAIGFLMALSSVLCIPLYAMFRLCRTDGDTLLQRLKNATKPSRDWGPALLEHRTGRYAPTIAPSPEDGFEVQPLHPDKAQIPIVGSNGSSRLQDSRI
Put plainly: Glycine uptake inhibition experiment ([3H]glycine uptake). Format: cell-based. Conditions: GlyT1. A digest of the protocol: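 T98G glioma cells expressing human GlyT1 were pretreated 10 min with compound in HEPES buffer pH 7.4 (0.2% BSA), then incubated with compound plus 250 nM final [3H]glycine for 15 min at room temperature. Intracellular radioactivity was counted after NaOH lysis; 10 μM ALX5407 defined non-specific uptake. IC50 came from 10^−9–10^−5 M curves.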
Broadly, the IC50 is the point on the concentration scale where inhibition reaches its midpoint. Low readings indicate inhibition by little substance, high ones a need for much substance. On to `CCn1cc(-c2cccc(C(NC(=O)c3cccc(OC)c3Cl)C3(O)CCC(F)(F)CC3)c2)cn1` (stereo not drawn) [Compound 207, 2-chloro-N-{(4,4-difluoro-1-hydroxycyclohexyl)[3-(1-ethyl-1H-pyrazol-4-yl)phenyl]methyl}-3-methoxybenzamide], for which the IC50 came out at 8800 nM.

With `CCn1cc(-c2cccc(C(NC(=O)c3cccc(Cl)c3C(F)(F)F)C3(O)CCC(F)(F)CC3)c2)cn1` (stereo not drawn) [Compound 208, 3-chloro-N-{(4,4-difluoro-1-hydroxycyclohexyl)[3-(1-ethyl-1H-pyrazol-4-yl)phenyl]methyl}-2-(trifluoromethyl)benzamide], the IC50 turned out to be 1300 nM.

`CCn1cc(-c2cccc(C(NC(=O)c3cccc(F)c3Cl)C3(O)CCC(F)(F)CC3)c2)cn1` (stereo not drawn) [Compound 209, 2-chloro-N-{(4,4-difluoro-1-hydroxycyclohexyl)[3-(1-ethyl-1H-pyrazol-4-yl)phenyl]methyl}-3-fluorobenzamide] came in with an IC50 of 1200 nM.

As to `O=C(NC(c1cccc(Cl)c1)C1(O)CCCCC1)c1nccc(C(F)(F)F)c1Cl` (stereo not drawn) [Compound 212, 3-chloro-N-[(3-chlorophenyl)(1-hydroxycyclohexyl)methyl]-4-(trifluoromethyl)pyridine-2-carboxamide], the IC50 was 84 nM.

In turn, `O=C(N[C@@H](c1cccc(Cl)c1)[C@]1(O)CC[C@@H](F)CC1)c1cc(C(F)(F)F)ncc1Cl` [Compound 227, 5-chloro-N-[(S)-(3-chlorophenyl)(cis-4-fluoro-1-hydroxycyclohexyl)methyl]-2-(trifluoromethyl)pyridine-4-carboxamide] displayed an IC50 of 510 nM.

For the compound `O=C(NC(c1cccc(Cl)n1)C1(O)CCCC1)c1nccc(C(F)(F)F)c1Cl` (stereo not drawn) [Compound 383, 3-chloro-N-[(6-chloropyridin-2-yl)(1-hydroxycyclopentyl)methyl]-4-(trifluoromethyl)pyridine-2-carboxamide], the IC50 was determined as 21 nM.

(Values after patent US20160130278A1 (TAISHO PHARMACEUTICAL CO., LTD, priority 2013, published 2016).)
